From PMC3070799 (Neuropharmacology, 2011) come the findings set out here.

The target of one assay is T1, human 5-HT3AB receptors (Homo sapiens, UniProt O95264+P46098).
T1 construct: expressed in transfected cells; host or cells: Xenopus laevis oocytes (cRNA from pGEMHE)
T1 sequence (P46098 24-478): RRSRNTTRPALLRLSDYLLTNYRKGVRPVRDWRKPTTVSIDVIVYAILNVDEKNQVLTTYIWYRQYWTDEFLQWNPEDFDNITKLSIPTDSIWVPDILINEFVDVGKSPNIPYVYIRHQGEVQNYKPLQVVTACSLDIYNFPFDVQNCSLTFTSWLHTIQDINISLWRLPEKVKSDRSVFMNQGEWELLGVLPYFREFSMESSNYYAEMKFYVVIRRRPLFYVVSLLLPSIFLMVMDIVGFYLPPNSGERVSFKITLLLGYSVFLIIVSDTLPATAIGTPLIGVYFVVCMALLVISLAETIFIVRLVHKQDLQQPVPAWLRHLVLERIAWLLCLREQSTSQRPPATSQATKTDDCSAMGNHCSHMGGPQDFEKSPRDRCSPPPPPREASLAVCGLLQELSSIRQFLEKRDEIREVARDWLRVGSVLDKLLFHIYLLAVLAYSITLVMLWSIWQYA
T1 sequence (O95264 22-441): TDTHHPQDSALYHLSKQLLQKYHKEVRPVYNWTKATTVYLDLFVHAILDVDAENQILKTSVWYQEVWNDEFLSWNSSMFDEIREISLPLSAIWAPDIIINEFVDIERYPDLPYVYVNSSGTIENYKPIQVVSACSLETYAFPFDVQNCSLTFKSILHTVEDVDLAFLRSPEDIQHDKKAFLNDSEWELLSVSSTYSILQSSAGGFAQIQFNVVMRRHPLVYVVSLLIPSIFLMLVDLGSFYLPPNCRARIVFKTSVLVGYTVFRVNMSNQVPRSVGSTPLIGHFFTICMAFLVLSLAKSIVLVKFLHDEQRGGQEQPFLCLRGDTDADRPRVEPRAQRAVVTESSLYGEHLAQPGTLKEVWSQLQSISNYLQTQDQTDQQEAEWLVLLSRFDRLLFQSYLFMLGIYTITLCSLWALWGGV
In kind it is binding. The method, then: Human embryonic kidney (HEK) 293 cells were maintained on 90 mm tissue culture plates at 37 °C and 7% CO2 in a humidified atmosphere. They were cultured in DMEM:F12 with GlutaMAX™ I media (Dulbecco’s Modified Eagle’s Medium /Nutrient Mix F12 (1:1), Invitrogen, Paisley, UK) containing 10% foetal calf serum. For radioligand binding studies, cells in 90 mm dishes were transfected using polyethyleneimine (PEI): 30 μl PEI (1 mg /ml), 5 μl cDNA and 1 ml DMEM were incubated for 10 min at room temperature, added drop wise to a 80–90% confluent plate, and incubated for 3–4 days before use.
(§1) Competition binding (8 point) was performed on at least three separate plates of transfected cells. […] Reactions were incubated for at least 1 h at 4 °C and terminated by vacuum filtration using a Brandel cell harvester onto GF/B filters pre-soaked in 0.3% polyethyleneimine. Radioactivity was determined by scintillation counting using a Beckman BCLS6500 (Fullerton, California, USA). Data were analysed by iterative curve fitting (GraphPad Prism v3.02) according to the equation:(5) BL=Bmin+Bmax−Bmin/1+10^nH(logL50−logL) where L is the concentration of ligand present; BL is the binding in the presence of ligand concentration L; Bmin is the binding when L = 0; Bmax is the binding when L = ∞, L50 is the concentration of L which gives a binding equal to (Bmax + Bmin)/2; and nH is the Hill coefficient. Results are presented as mean ± S.E.M.. Statistical analysis was performed using ANOVA in conjunction with a Dunnett’s post-hoc test.

Another assay deals with T2, mouse 5-HT3AB (Mus musculus, UniProt P23979+Q9JHJ5).
T2 construct: expressed in transfected cells
T2 sequence (P23979 24-483 isoform P23979-2 limits assumed): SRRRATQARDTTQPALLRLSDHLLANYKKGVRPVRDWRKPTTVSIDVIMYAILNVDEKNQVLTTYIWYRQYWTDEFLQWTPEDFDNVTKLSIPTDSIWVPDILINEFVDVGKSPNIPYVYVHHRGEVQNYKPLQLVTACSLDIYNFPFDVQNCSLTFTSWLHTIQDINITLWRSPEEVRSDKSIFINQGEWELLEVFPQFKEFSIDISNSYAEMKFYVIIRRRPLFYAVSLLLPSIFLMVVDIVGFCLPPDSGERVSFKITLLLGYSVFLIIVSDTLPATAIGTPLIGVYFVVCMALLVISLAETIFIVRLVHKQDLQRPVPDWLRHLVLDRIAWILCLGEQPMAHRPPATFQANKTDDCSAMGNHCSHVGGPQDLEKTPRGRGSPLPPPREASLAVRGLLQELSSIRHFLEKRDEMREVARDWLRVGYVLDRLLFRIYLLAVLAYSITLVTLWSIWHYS
T2 sequence (Q9JHJ5 22-437): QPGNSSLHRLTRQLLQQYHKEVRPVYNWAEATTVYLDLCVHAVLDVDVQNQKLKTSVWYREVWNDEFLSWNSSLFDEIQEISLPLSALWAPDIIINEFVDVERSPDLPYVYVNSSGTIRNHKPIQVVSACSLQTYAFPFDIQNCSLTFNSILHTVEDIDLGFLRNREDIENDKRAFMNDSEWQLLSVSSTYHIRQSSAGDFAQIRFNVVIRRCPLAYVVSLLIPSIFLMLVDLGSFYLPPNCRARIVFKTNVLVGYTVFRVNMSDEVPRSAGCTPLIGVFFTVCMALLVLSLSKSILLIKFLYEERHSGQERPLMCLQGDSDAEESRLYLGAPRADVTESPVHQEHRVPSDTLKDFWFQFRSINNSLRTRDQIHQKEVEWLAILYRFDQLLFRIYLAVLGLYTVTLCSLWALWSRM
The assay can be described thus: Granisetron competition binding. The method, then: as §1

For the next assay, the target named is T3, mouse 5-HT3A (Mus musculus, UniProt P23979).
T3 construct: expressed in transfected cells
T3 sequence (P23979 24-483 isoform P23979-2 limits assumed): T2 sequence (P23979 24-483 isoform P23979-2 limits assumed)
The assay can be described thus: Granisetron competition binding. The method, then:
as §1

Like-named read-outs stand apart in the source and are kept apart here.

`CC(C)(C)[C@]1(O)CC2OC(=O)CC23C(=O)OC2OC(=O)[C@H](O)C231` (stereo partly drawn) [BB, bilobalide]: the “Effect on binding of [3H]granisetron (1 nM)” value (shortened to “Effect on binding”) at human 5-HT3AB receptors was “not affected”. The “Displacement of granisetron (0.5 nM)” value on mouse 5-HT3AB (compound 2.5 mM) and at mouse 5-HT3A (compound 2.5 mM) was “not displaced” in each case.

`C=C(C)[C@@H]1[C@H]2OC(=O)[C@@H]1[C@]1(O)C[C@H]3O[C@]34C(=O)O[C@H]2[C@]14C` [PXN, picrotoxinin]: at human 5-HT3AB receptors (compound 5 mM), the “Effect on binding” value was “not affected”. The “Displacement of granisetron (0.5 nM)” value on mouse 5-HT3AB (compound 5 mM) and on mouse 5-HT3A (compound 5 mM) was “not displaced” each time.

For ginkgolide B [GB], the “Effect on binding” value at human 5-HT3AB receptors (compound 2.5 mM) was “not affected”. Further, the “Displacement of granisetron (0.5 nM)” value at mouse 5-HT3AB (compound 2.5 mM) and on mouse 5-HT3A (compound 2.5 mM) was “not displaced” in each case.
